≈ marks a conversion by molar mass, not a printed value. Read-outs that look alike come from different tables or passages of the source.
How the values were obtained:
Format in all cases: cell-based
[1] = system: M. tuberculosis H37Rv (ATCC 27294); test: MIC by broth dilution method, M. tuberculosis H37Rv; conditions: Mycobacterium tuberculosis
[2] = Cytotoxicity assay (MTT) in macrophage J774 cells; conditions: mouse, J774 macrophage cells; also called safety index
Protocol: (§1) The study was carried out using macrophage J774 cells line (ATCC-USA). Cells were grown in Rosewell Park Memorial Institute Medium (RPMI) containing 10% fetal calf serum (FCS) and supplemented with 75 mg/liter penicillin, 100 mg/liter streptomycin, 110 mg/liter Sodium pyruvate, 2.38 gm/liter HEPES, 0.05 mM 2 β-mercaptoethanol, and 2 gm/liter NaHCO3, in a humidified atmosphere in 5% CO2 at 37° C., and were sub-cultured at 1:4 ratio once a week.
(§2) Cells were plated at a density of 3×10^4 cells/cm^2 and maintained in culture medium for 12 hours. Cells were seeded onto 96-well flat bottom plates and FCS was reduced to 5% for the experiment. Stock solutions of compounds IA1 to IIC10 were prepared fresh to avoid oxidation. Cells were incubated with the compounds (40 μg/ml) for 24 hrs.
(§3) After the completion of incubation, the medium was removed and cell viability was evaluated by assaying for the ability of functional mitochondria to catalyze the reduction of 3-(4,5-dimethylthiazol-2-yl)-2,5-diphenyltetrazolium bromide (MTT) to form formazan salt by mitochondrial dehydrogenases, and determined by Elisa reader at 450 nm (Multiskan Spectrum; Thermo Electron Corporation, USA). Percentage cytotoxicity was calculated with respect to the untreated cells.

[3] = system: macrophage J774 cells line; test: Cytotoxicity assay (MTT) in macrophage J774 cells; conditions: J774 cells, 24 hrs, MTT
Protocol: as §1, §2, §3

[4] = 504 h, broth dilution, 3 weeks, read-out: MIC M. tb H37Rv
[5] = read-out: MIC value, text summary: sensitive H37Rv as well as MDR and XDR strains of M. tuberculosis
[6] = 504 h, text summary: sensitive H37Rv as well as MDR and XDR strains of M. tuberculosis, read-out: MIC value

C[C@]1(COc2ccc(-c3cc(-c4ccc(F)cc4F)on3)cc2)Cn2cc([N+](=O)[O-])nc2O1 [IC3, (R)-2-{4-[5-(2,4-difluorophenyl)isoxazol-3-yl]phenoxymethyl}-2,3-dihydro-2-methyl-6-nitroimidazo[2,1-b]oxazole]
MIC [1, 4]: 0.25 µg/mL (≈ 0.55 µM)
MIC [1, 5]: < 1 µg/mL
selectivity ratio at 24 h, 40 μg/ml [2]: > 10
Cytotoxicity [3]: >40 µg/mL

CCc1ccc(-c2cn(-c3ccc(OC[C@@]4(C)Cn5cc([N+](=O)[O-])nc5O4)cc3)nn2)cc1 [IA2, (R)-2-{4-[4-(4-ethylphenyl)-1H-1,2,3-triazol-1-yl]phenoxymethyl}-2,3-dihydro-2-methyl-6-nitroimidazo[2,1-b]oxazole]
MIC [1, 4]: 2 µg/mL (≈ 4.48 µM)
selectivity ratio at 24 h, 40 μg/ml [2]: > 10
Cytotoxicity [3]: >40 µg/mL

C[C@]1(COc2ccc(S(=O)(=O)N3CCN(C(=O)c4ccccc4)CC3)cc2)Cn2cc([N+](=O)[O-])nc2O1 [IIC6, (R)-{4-[4-(2-methyl-6-nitro-2,3-dihydroimidazo[2,1-b]oxazol-2yl)methoxyphenyl]sulfonyl}piperazine-1-yl(phenyl)methanone]
MIC [1, 4]: 2 µg/mL (≈ 3.79 µM)
selectivity ratio at 24 h, 40 μg/ml [2]: > 10
Cytotoxicity [3]: >40 µg/mL

C[C@]1(COc2ccccc2-n2cc(COc3ccccc3F)nn2)Cn2cc([N+](=O)[O-])nc2O1 [IA42]
MIC [1, 4]: 2 µg/mL (≈ 4.29 µM)
selectivity ratio at 24 h, 40 μg/ml [2]: > 10
Cytotoxicity [3]: >40 µg/mL

CC(C)c1ccc(OCc2cc(-c3ccc(OC[C@@]4(C)Cn5cc([N+](=O)[O-])nc5O4)cc3)no2)cc1 [IC18, (R)-2-{4-[5-(4-isopropylphenoxymethyl)isoxazol-3-yl]phenoxymethyl}-2,3-dihydro-2-methyl-6-nitroimidazo[2,1-b]oxazole]
MIC [1, 4]: 0.25 µg/mL (≈ 0.51 µM)
MIC [1, 5]: < 1 µg/mL
selectivity ratio at 24 h, 40 μg/ml [2]: > 10
Cytotoxicity [3]: >40 µg/mL

C[C@]1(COc2ccc(-n3cc(COc4ccc(C(F)(F)F)cc4)nn3)cc2)Cn2cc([N+](=O)[O-])nc2O1 [IA27]
MIC [1, 4]: 0.25 µg/mL (≈ 0.484 µM)
MIC [1, 5]: < 1 µg/mL
selectivity ratio at 24 h, 40 μg/ml [2]: > 10
Cytotoxicity [3]: >40 µg/mL

CCCCCc1cc(-c2ccc(OC[C@@]3(C)Cn4cc([N+](=O)[O-])nc4O3)cc2)no1 [IC11, (R)-2-{4-[5-pentylisoxazol-3-yl]phenoxymethyl}-2,3-dihydro-2-methyl-6-nitroimidazo[2,1-b]oxazole]
MIC [1, 4]: 32 µg/mL (≈ 77.6 µM)
selectivity ratio at 24 h, 40 μg/ml [2]: > 10
Cytotoxicity [3]: >40 µg/mL

C[C@]1(COc2ccc(S(=O)(=O)N3CCN(c4ccc(OC(F)(F)F)cc4)CC3)cc2)Cn2cc([N+](=O)[O-])nc2O1 [IIC4, (R)-2-{4-[4-(4-trifluoromethoxyphenyl)piperazin-1-yl]sulfonylphenoxymethyl}-2,3-dihydro-2-methyl-6-nitroimidazo[2,1-b]oxazole]
MIC [1, 4]: 2 µg/mL (≈ 3.43 µM)
selectivity ratio at 24 h, 40 μg/ml [2]: > 10
Cytotoxicity [3]: >40 µg/mL

Cc1ccc(NC(=O)Nc2ccc(OC[C@@]3(C)Cn4cc([N+](=O)[O-])nc4O3)cc2)cc1 [IIA4, (R)-1-(4-methylphenyl)-3-{4-(2-methyl-6-nitro-2,3-dihydroimidazo[2,1-b]oxazol-2-yl)methoxyphenyl}urea]
MIC [1, 4]: 0.06 µg/mL (≈ 0.142 µM)
MIC [1, 5]: < 1 µg/mL
selectivity ratio at 24 h, 40 μg/ml [2]: > 10
Cytotoxicity [3]: >40 µg/mL

CCc1ccc(-c2nnnn2-c2ccc(OC[C@@]3(C)Cn4cc([N+](=O)[O-])nc4O3)cc2)cc1 [IB6, (R)-2-{4-[5-(4-ethylphenyl)-1H-tetrazol-1-yl]phenoxymethyl}-2,3-dihydro-2-methyl-6-nitroimidazo[2,1-b]oxazole]
MIC [1, 4]: 2 µg/mL (≈ 4.47 µM)
MIC [1, 6]: 1 to 4 µg/mL (≈ 2.23 to 8.94 µM)
Cytotoxicity [3]: >40 µg/mL

COc1ccc(NC(=S)Nc2ccc(OC[C@@]3(C)Cn4cc([N+](=O)[O-])nc4O3)cc2)cc1 [IIA7, (R)-1-(4-methoxyphenyl)-3-{4-(2-methyl-6-nitro-2,3-dihydroimidazo[2,1-b]oxazol-2-yl)methoxyphenyl}thiourea]
MIC [1, 4]: 2 µg/mL (≈ 4.39 µM)
Cytotoxicity [3]: >40 µg/mL

C[C@]1(COc2ccccc2-n2cc(-c3ccc(F)cc3)nn2)Cn2cc([N+](=O)[O-])nc2O1 [IA21, (R)-2-{2-[4-(4-fluorophenyl)-1H-1,2,3-triazol-1-yl]phenoxymethyl}-2,3-dihydro-2-methyl-6-nitroimidazo[2,1-b]oxazole]
MIC [1, 4]: 1 µg/mL (≈ 2.29 µM)
Cytotoxicity [3]: >40 µg/mL

C[C@]1(COc2cccc(-n3cc(COc4ccc(C(F)(F)F)cc4)nn3)c2)Cn2cc([N+](=O)[O-])nc2O1 [IA35]
MIC [1, 4]: 2 µg/mL (≈ 3.87 µM)
Cytotoxicity [3]: >40 µg/mL

Cc1ccc(-c2cn(-c3ccc(OC[C@@]4(C)Cn5cc([N+](=O)[O-])nc5O4)cc3)nn2)cc1 [IA8, (R)-2-{4-[4-(4-methylphenyl)-1H-1,2,3-triazol-1-yl]phenoxymethyl}-2,3-dihydro-2-methyl-6-nitroimidazo[2,1-b]oxazole]
MIC [1, 4]: 1 µg/mL (≈ 2.31 µM)
Cytotoxicity [3]: >40 µg/mL

C[C@]1(COc2cccc(-n3cc(-c4ccc(OC(F)(F)F)cc4)nn3)c2)Cn2cc([N+](=O)[O-])nc2O1 [IA19, (R)-2-{3-[4-(4-trifluoromethoxyphenyl)-1H-1,2,3-triazol-1-yl]phenoxymethyl}-2,3-dihydro-2-methyl-6-nitroimidazo[2,1-b]oxazole]
MIC [1, 4]: 4 µg/mL (≈ 7.96 µM)
Cytotoxicity [3]: >40 µg/mL

C[C@]1(COc2ccc(S(=O)(=O)Nc3ccc(C(F)(F)F)cc3)cc2)Cn2cc([N+](=O)[O-])nc2O1 [IIB3, (R)-4-{(2-methyl-6-nitro-2,3-dihydroimidazo[2,1-b]oxazol-2-yl)methoxy}-N-(4 trifluoromethylphenyl)benzenesulfonamide]
MIC [1, 4]: 2 µg/mL (≈ 4.01 µM)
Cytotoxicity [3]: >40 µg/mL

Cc1ccc(NS(=O)(=O)c2ccc(OC[C@@]3(C)Cn4cc([N+](=O)[O-])nc4O3)cc2)cc1 [IIB1, (R)-4-{(2-methyl-6-nitro-2,3-dihydroimidazo[2,1-b]oxazol-2-yl)methoxy}-N-(p-tolyl)benzenesulfonamide]
MIC [1, 4]: 2 µg/mL (≈ 4.5 µM)
Cytotoxicity [3]: >40 µg/mL

C[C@]1(COc2ccc(-n3nnnc3-c3ccccc3)cc2)Cn2cc([N+](=O)[O-])nc2O1 [IB1, (R)-2-{4-[5-phenyl-1H-tetrazol-1-yl]phenoxymethyl}-2,3-dihydro-2-methyl-6-nitroimidazo[2,1-b]oxazole]
MIC [1, 4]: 2 µg/mL (≈ 4.77 µM)
MIC [1, 6]: 1 to 4 µg/mL (≈ 2.38 to 9.54 µM)
Cytotoxicity [3]: >40 µg/mL

CC(C)c1ccc(-c2cn(-c3ccc(OC[C@@]4(C)Cn5cc([N+](=O)[O-])nc5O4)cc3)nn2)cc1 [IA9, (R)-2-{4-[4-(4-isopropylphenyl)-1H-1,2,3-triazol-1-yl]phenoxymethyl}-2,3-dihydro-2-methyl-6-nitroimidazo[2,1-b]oxazole]
MIC [1, 4]: 1 µg/mL (≈ 2.17 µM)
Cytotoxicity [3]: >40 µg/mL

C[C@]1(COc2ccc(-n3nnnc3-c3ccc(C(F)(F)F)cc3)cc2)Cn2cc([N+](=O)[O-])nc2O1 [IB5, (R)-2-{4-[5-(4-trifluoromethylphenyl)-1H-tetrazol-1-yl]phenoxymethyl}-2,3-dihydro-2-methyl-6-nitroimidazo[2,1-b]oxazole]
MIC [1, 4]: 1 µg/mL (≈ 2.05 µM)
MIC [1, 6]: 1 to 4 µg/mL (≈ 2.05 to 8.21 µM)
Cytotoxicity [3]: >40 µg/mL

C[C@]1(COc2cccc(-n3cc(-c4ccc(C(F)(F)F)cc4)nn3)c2)Cn2cc([N+](=O)[O-])nc2O1 [IA18, (R)-2-{3-[4-(4-trifluoromethylphenyl)-1H-1,2,3-triazol-1-yl]phenoxymethyl}-2,3-dihydro-2-methyl-6-nitroimidazo[2,1-b]oxazole]
MIC [1, 4]: 2 µg/mL (≈ 4.11 µM)
Cytotoxicity [3]: >40 µg/mL

CN(c1ccc(C(F)(F)F)cc1)S(=O)(=O)c1ccc(OC[C@@]2(C)Cn3cc([N+](=O)[O-])nc3O2)cc1 [IIB6, (R)—N-methyl-4-{(2-methyl-6-nitro-2,3-dihydroimidazo[2,1-b]oxazol-2-yl)methoxy}-N-(p-trifluoromethylphenyl)benzenesulfonamide]
MIC [1, 4]: 1 µg/mL (≈ 1.95 µM)
Cytotoxicity [3]: >40 µg/mL

C[C@]1(COc2ccc(-c3cc(-c4ccccn4)on3)cc2)Cn2cc([N+](=O)[O-])nc2O1 [IC9, (R)-2-{4-[5-(pyridin-2-yl)isoxazol-3-yl]phenoxymethyl}-2,3-dihydro-2-methyl-6-nitroimidazo[2,1-b]oxazole]
MIC [1, 4]: 2 µg/mL (≈ 4.77 µM)
Cytotoxicity [3]: >40 µg/mL

C[C@]1(COc2ccc(-c3cc(COc4ccccc4)on3)cc2)Cn2cc([N+](=O)[O-])nc2O1 [IC21, (R)-2-{4-[5-(phenoxymethyl)isoxazol-3-yl]phenoxymethyl}-2,3-dihydro-2-methyl-6-nitroimidazo[2,1-b]oxazole]
MIC [1, 4]: 4 µg/mL (≈ 8.92 µM)
Cytotoxicity [3]: >40 µg/mL

C[C@]1(COc2ccc(NC(=S)Nc3ccc(F)cc3)cc2)Cn2cc([N+](=O)[O-])nc2O1 [IIA9, (R)-1-(4-fluorophenyl)-3-{4-(2-methyl-6-nitro-2,3-dihydroimidazo[2,1-b]oxazol-2-yl)methoxyphenyl}thiourea]
MIC [1, 4]: 4 µg/mL (≈ 9.02 µM)
Cytotoxicity [3]: >40 µg/mL

Cc1ccc(N(C)S(=O)(=O)c2ccc(OC[C@@]3(C)Cn4cc([N+](=O)[O-])nc4O3)cc2)cc1 [IIB5, (R)—N-methyl-4-{(2-methyl-6-nitro-2,3-dihydroimidazo[2,1-b]oxazol-2-yl)methoxy}-N-(p-tolyl)benzenesulfonamide]
MIC [1, 4]: 4 µg/mL (≈ 8.72 µM)
Cytotoxicity [3]: >40 µg/mL
